The values below come from patent US20260007683A1, “PHARMACEUTICAL COMPOSITIONS COMPRISING HIV INTEGRASE INHIBITORS” (Gilead Sciences, Inc., priority 2024, published 2026).

The nature of data set [1]: Hygroscopicity by dynamic vapor sorption (DVS). It counts as physicochemical. The note with it: for change of solid form post DVS experiment: after DVS cycle 5-95% RH at 25° C.; for water absorbed (dynamic vapor sorption): up to 95% RH at 25° C. The procedure: Hygroscopicity was studied using dynamic vapor sorption (DVS, TA Q5000 SA, TA Instruments, New Castle, DE or DVS, DVS Intrinsic, Surface Measurement Systems, London, UK). A sample (1-20 mg) was placed in an aluminum DVS pan and loaded on the sample side of the twin pan balance. The water sorption and desorption were studied as a function of relative humidity (RH) at 25° C. In 10% RH increments, the relative humidity was increased from 5% RH to 95% RH and then decreased back to 5%. […] Data analysis was performed using Universal Analysis 2000 Version 4.7A (TA Instruments, New Castle, DE) for TA DVS runs and Microsoft Excel for SMS DVS runs.

The nature of data set [2]: Drying of solid form under ambient conditions (form conversion). The class given is physicochemical. From the text: Compound of Formula I, Form II is a metastable methanol solvated phase. It was isolated when compound of Formula I, Form I was slurried in methanol for about 60 days and identified by x-ray of the wet cake.

For `O=C(NCc1c(F)cc(F)cc1F)c1cn2c(c(O)c1=O)C(=O)N1CCCC[C@H]2C1` [Compound of Formula I, Form I, (7S)-12-hydroxy-1,11-dioxo-N-(2,4,6-trifluorobenzyl)-1,4,5,6,7,11-hexahydro-3H-2,7-methanopyrido[1,2-a][1,4]diazonine-10-carboxamide], in data set [1], the “change of solid form post DVS experiment” value is on record as “not have changed form” and the “water absorbed (dynamic vapor sorption)” value is listed as “about 0.097%”.

Consider `O=C(NCc1c(F)cc(F)cc1F)c1cn2c(c(O)c1=O)C(=O)N1CCCC[C@H]2C1` [Compound of Formula I, Form II, (7S)-12-hydroxy-1,11-dioxo-N-(2,4,6-trifluorobenzyl)-1,4,5,6,7,11-hexahydro-3H-2,7-methanopyrido[1,2-a][1,4]diazonine-10-carboxamide], for which, in data set [2], the “form conversion upon drying” value was “convert to compound of Formula I, Form III”.

In the case of `O=C(NCc1c(F)cc(F)cc1F)c1cn2c(c(O)c1=O)C(=O)N1CCCC[C@H]2C1` [Compound of Formula I, Form III, (7S)-12-hydroxy-1,11-dioxo-N-(2,4,6-trifluorobenzyl)-1,4,5,6,7,11-hexahydro-3H-2,7-methanopyrido[1,2-a][1,4]diazonine-10-carboxamide], in data set [1], the “change of solid form post DVS experiment” value is listed as “not have changed form” and the “water absorbed (dynamic vapor sorption)” value is reported as “about 0.87%”.

For `O=C(NCc1c(F)cc(F)cc1F)c1cn2c(c(O)c1=O)C(=O)N1CCCC[C@H]2C1` [Compound of Formula I, Form IV, (7S)-12-hydroxy-1,11-dioxo-N-(2,4,6-trifluorobenzyl)-1,4,5,6,7,11-hexahydro-3H-2,7-methanopyrido[1,2-a][1,4]diazonine-10-carboxamide], in data set [1], the “change of solid form post DVS experiment” value is given as “not have changed form” and the “water absorbed (dynamic vapor sorption)” value is on record as “about 3.5%”.
